# Several values for one entry are separate records, joined by “and”; a condition that tells them apart may be missing. Equal values may be shown once.
# Columns and labels:
# [1] = Single dose PK/TK, dog; assay type: in vivo; details: for AUC / Cmax / Tmax: dog, in vivo, po
# Description: (§1) This section provides a summary of the pharmacokinetic and metabolism properties of AZD0328 derived from in vivo studies. […] The derived PK/TK parameters from these studies are presented in Table 4 for single dose studies (DMR4, 0619LR, 20030191PCR, DMO16, DMB10, DMW12, 50190, 0190DD and 03.330/1), and are presented in Table 5 multiple dose PK/TK studies (DMR4, 0612AR, DMB15, 50190, 0190DD and 0295AD).
# [2] = Multiple dose PK/TK, rat; assay type: in vivo
# Description: as §1
# [3] = tested on: human hepatocytes; experiment: Human hepatocyte incubations; assay type: in vitro ADME; details: four separate batches of human hepatocytes
# Description: Pyridinyl methylation of AZD0328 was a unique polar metabolite (M2) observed in dog hepatocytes. Other minor hydroxylation/oxidation and glucuronide conjugation products were detected in monkey, dog, rat, and guinea pig hepatocyte incubations and mini-pig hepatic microsome incubations. […] Analysis of plasma and urine samples from either orally or iv dosed rats confirmed N-oxide product of AZD0328 was a main product in the excretion and circulation. The percentage of AZD0328 N-oxide in the plasma from male rats was much higher than from females.
# [4] = tested on: rats; experiment: Cardiovascular effects in telemetered rats; assay type: in vivo, rat
# Description: (§2) Effects of single oral doses of AZD0328 on mean, systolic and diastolic arterial blood pressures, heart rate, body temperature, locomotor activity and respiratory parameters were evaluated in rats by combining whole body plethysmography with telemetry (Table 3). […] The degree of hypertension, however, was similar at the 3 highest doses, which partly can be explained by the high individual variation in plasma exposure at each dose level. The effect on heart rate was, on the other hand, dose-related.
# [5] = Cardiovascular effects in telemetered rats; assay type: in vivo, rat; details: plasma, rat
# Description: as §2
# [6] = both sexes, 1.08 mg/kg, dog 2F+2M, 0190DD, oral 1.08 mg/kg (5 μmol/kg) split in two 6 h apart, capsules, fasted
# [7] = both sexes, 1.08 mg/kg, dog 2F+2M, 0190DD, oral 1.08 mg/kg (5 μmol/kg) split in two 6 h apart, capsules, fed
# [8] = both sexes, 1.08 mg/kg, dog 2F+2M, 0190DD, oral 1.08 mg/kg (5 μmol/kg) split in two 6 h apart, solution, fasted
# [9] = both sexes, rat, in vivo, po, 2.16 mg/kg, rat 1F+1M, DMR4, 2.16 mg/kg (10 μmol/kg), day 1
# [10] = both sexes, rat, in vivo, po, 2.16 mg/kg, rat 1F+1M, DMR4, 2.16 mg/kg (10 μmol/kg), day 7
# [11] = female, rat, in vivo, po, 2.16 mg/kg, rat 4F, 0612AR, 2.16 mg/kg (10 μmol/kg), day 1
# [12] = female, rat, in vivo, po, 2.16 mg/kg, rat 4F, 0612AR, 2.16 mg/kg (10 μmol/kg), day 30
# [13] = female, rat, in vivo, po, 15.1 mg/kg, rat 4F, 0612AR, 15.1 mg/kg (70 μmol/kg), day 1
# [14] = female, rat, in vivo, po, 15.1 mg/kg, rat 4F, 0612AR, 15.1 mg/kg (70 μmol/kg), day 30
# [15] = female, rat, in vivo, po, 64.9 mg/kg, rat 4F, 0612AR, 64.9 mg/kg (300 μmol/kg), day 1
# [16] = female, rat, in vivo, po, 64.9 mg/kg, rat 4F, 0612AR, 64.9 mg/kg (300 μmol/kg), day 30
# [17] = male, rat, in vivo, po, 2.16 mg/kg, rat 4M, 062AR, 2.16 mg/kg (10 μmol/kg), day 30
# [18] = male, rat, in vivo, po, 2.16 mg/kg, rat 4M, 0612AR, 2.16 mg/kg (10 μmol/kg), day 1
# [19] = male, rat, in vivo, po, 15.1 mg/kg, rat 4M, 0612AR, 15.1 mg/kg (70 μmol/kg), day 1
# [20] = male, rat, in vivo, po, 15.1 mg/kg, rat 4M, 0612AR, 15.1 mg/kg (70 μmol/kg), day 30
# [21] = male, rat, in vivo, po, 64.9 mg/kg, rat 4M, 0612AR, 64.9 mg/kg (300 μmol/kg), day 1
# [22] = male, rat, in vivo, po, 64.9 mg/kg, rat 4M, 0612AR, 64.9 mg/kg (300 μmol/kg), day 30
structure (smiles),measurement,setting,value
"c1cnc2c(c1)C[C@@]1(CN3CCC1CC3)O2 [AZD0328, (R)-Spiro[1-azabicyclo[2.2.2]octane-3,2′(3′H)-furo[2,3-b]pyridine]]",AUC,[1]; [6],68.1 ng·h/mL and 0.315 µM·h
same,Cmax,[1]; [6],19.2 ng/mL and 89 nM
same,Tmax,[1]; [6],1 to 3 h
same,AUC,[1]; [7],177 ng·h/mL and 0.818 µM·h
same,Cmax,[1]; [7],26.9 ng/mL and 124 nM
same,Tmax,[1]; [7],0.5 to 6 h
same,AUC,[1]; [8],104 ng·h/mL and 0.483 µM·h
same,Cmax,[1]; [8],33.1 ng/mL and 153 nM
same,Tmax,[1]; [8],0.5 h
same,F,"[1]; dog 4M, 0279ZD, single oral 17.3 mg/kg (80 μmol/kg)",0.146 ± 0.043%
same,F,"[1]; dog 4M, 0279ZD, single oral 34.6 mg/kg (160 μmol/kg)",0.239 ± 0.099%
same,AUC,"[1]; male, 17.3 mg/kg, dog 4M, 0279ZD, single oral 17.3 mg/kg (80 μmol/kg)",2530 ng·h/mL and 11.7 µM·h
same,AUC,"[1]; male, 34.6 mg/kg, dog 4M, 0279ZD, single oral 34.6 mg/kg (160 μmol/kg)",8280 ng·h/mL and 38.3 µM·h
same,AUC,[2]; [9],699 ng·h/mL to 861 ng·h/mL and 3.23 µM·h to 3.98 µM·h
same,Cmax,[2]; [9],251 ng/mL to 344 ng/mL and 1.16 µM to 1.59 µM
same,Tmax,[2]; [9],0.5 to 1 h
same,AUC,[2]; [10],2.77 µM·h to 3.96 µM·h and 599 ng·h/mL to 857 ng·h/mL
same,Cmax,[2]; [10],212 to 324 ng/mL
same,Cmax at 7 day,[2]; [10],981 to 1500 nM
same,Tmax,[2]; [10],0.5 h
same,AUC,[2]; [11],916 ng·h/mL and 7.25 µM·h
same,Cmax at 1 day,[2]; [11],236 ng/mL and 1.87 µM
same,Tmax at 1 day,[2]; [11],1 h
same,AUC,[2]; [12],858 ng·h/mL and 6.79 µM·h
same,Cmax at 30 day,[2]; [12],220 ng/mL and 1.74 µM
same,Tmax at 30 day,[2]; [12],1 h
same,AUC,[2]; [13],8120 ng·h/mL and 64.3 µM·h
same,Cmax at 1 day,[2]; [13],984 ng/mL and 7.79 µM
same,Tmax at 1 day,[2]; [13],1 h
same,AUC,[2]; [14],9600 ng·h/mL and 76 µM·h
same,Cmax at 30 day,[2]; [14],1420 ng/mL and 11.2 µM
same,Tmax at 30 day,[2]; [14],1 h
same,AUC,[2]; [15],40400 ng·h/mL and 320 µM·h
same,Cmax,[2]; [15],2480 ng/mL and 19.6 µM
same,Tmax,[2]; [15],1 to 3 h
same,AUC,[2]; [16],42100 ng·h/mL and 333 µM·h
same,Cmax,[2]; [16],2930 ng/mL and 23.2 µM
same,Tmax,[2]; [16],1 h
same,AUC,[2]; [17],412 ng·h/mL and 3.26 µM·h
same,Cmax at 30 day,[2]; [17],154 ng/mL and 1.22 µM
same,Tmax at 30 day,[2]; [17],1 h
same,AUC,[2]; [18],528 ng·h/mL and 4.18 µM·h
same,Cmax at 1 day,[2]; [18],189 ng/mL and 1.5 µM
same,Tmax at 1 day,[2]; [18],1 h
same,AUC,[2]; [19],4230 ng·h/mL and 33.5 µM·h
same,Cmax at 1 day,[2]; [19],769 ng/mL and 6.09 µM
same,Tmax at 1 day,[2]; [19],1 to 3 h
same,AUC,[2]; [20],5630 ng·h/mL and 44.6 µM·h
same,Cmax at 30 day,[2]; [20],1160 ng/mL and 9.21 µM
same,Tmax at 30 day,[2]; [20],1 h
same,AUC,[2]; [21],23900 ng·h/mL and 189 µM·h
same,Cmax,[2]; [21],1670 ng/mL and 13.2 µM
same,Tmax,[2]; [21],1 to 6 h
same,AUC,[2]; [22],29300 ng·h/mL and 232 µM·h
same,Cmax,[2]; [22],2780 ng/mL and 22 µM
same,Tmax,[2]; [22],1 h
same,AUC/dose,"[2]; rat 1F+1M, DMR4, 2.16 mg/kg (10 μmol/kg), day 1",0.323-0.398
same,AUC/dose,"[2]; rat 1F+1M, DMR4, 2.16 mg/kg (10 μmol/kg), day 7",0.277-0.396
same,AUC/dose,"[2]; rat 4F, 0612AR, 2.16 mg/kg (10 μmol/kg), day 1",0.725 ± 0.068
same,AUC/dose,"[2]; rat 4F, 0612AR, 2.16 mg/kg (10 μmol/kg), day 30",0.679 ± 0.134
same,AUC/dose,"[2]; rat 4F, 0612AR, 15.1 mg/kg (70 μmol/kg), day 1",0.919 ± 0.071
same,AUC/dose,"[2]; rat 4F, 0612AR, 15.1 mg/kg (70 μmol/kg), day 30",1.09 ± 0.13
same,AUC/dose,"[2]; rat 4F, 0612AR, 64.9 mg/kg (300 μmol/kg), day 1",1.07 ± 0.10
same,AUC/dose,"[2]; rat 4F, 0612AR, 64.9 mg/kg (300 μmol/kg), day 30",1.11 ± 0.14
same,AUC/dose,"[2]; rat 4M, 062AR, 2.16 mg/kg (10 μmol/kg), day 30",0.326 ± 0.084
same,AUC/dose,"[2]; rat 4M, 0612AR, 2.16 mg/kg (10 μmol/kg), day 1",0.418 ± 0.062
same,AUC/dose,"[2]; rat 4M, 0612AR, 15.1 mg/kg (70 μmol/kg), day 1",0.479 ± 0.037
same,AUC/dose,"[2]; rat 4M, 0612AR, 15.1 mg/kg (70 μmol/kg), day 30",0.637 ± 0.043
same,AUC/dose,"[2]; rat 4M, 0612AR, 64.9 mg/kg (300 μmol/kg), day 1",0.630 ± 0.083
same,AUC/dose,"[2]; rat 4M, 0612AR, 64.9 mg/kg (300 μmol/kg), day 30",0.773 ± 0.057
same,metabolites in human hepatocyte incubations,[3],no metabolites were detected
same,increase in HR,"[4]; rat, highest dose (total Cmax 31.2 μM)",19%
same,dose without CV effect,"[4]; rat, oral gavage",1.1 mg/kg
same,duration of BP and HR increase postdose,[4]; telemetered rats,increased for up to 6 h postdose.
same,Cmax,"[5]; po, highest dose, read-out: total Cmax",31200 nM
same,Cmax,"[5]; oral, 1.1 mg/kg, read-out: NOAEL (effect<10%) on cardiovascular function, total Cmax",500 nM
